Test [1] deals with A2780-Cis cells. In words: Cell viability, cisplatin 48 h. In kind it is cell-based, human. Conditions: cisplatin alone.
Procedure: (§1) CCK8 cell viability assay: One thousand cells were seeded each well in 96-well plates. Following treatment for 48 h, the cells were washed with PBS and incubated for 4 h with CCK8 reagent at 37° C. in 5% CO2 incubator according to manufacturer's guidelines. The absorbance was measured at 460 nm.
Test [2] concerns OVCAR8-Cis cells. In words: Cell viability, cisplatin 48 h. The conditions noted are these: cisplatin alone. In kind it is cell-based, human.
Procedure: as §1
Test [3] concerns SL-3-Cis cells. In words: Cell viability, cisplatin 48 h. The conditions noted are these: cisplatin alone. In kind it is cell-based, human.
Procedure: as §1
Test [4] has as its system A2780 cells. In words: Cell viability, cisplatin 48 h. Format: cell-based, human. The conditions noted are these: cisplatin alone.
Procedure: as §1
Test [5] has as its system OVCAR8 cells. In words: Cell viability, cisplatin 48 h. Conditions: cisplatin alone. In kind it is cell-based, human.
Procedure: as §1
The test system of test [6] is SL3 cells. In words: Cell viability, cisplatin 48 h. In kind it is cell-based, human. Conditions: cisplatin alone.
Procedure: as §1
The test system of test [7] is A2780 ovarian cancer. In words: In vivo, intraperitoneal A2780-sensitive luciferase tumors. The arrangement: species or system athymic nude mice. Conditions: single agent, mice stimulated with OSM; cisplatin 5 mg/kg biweekly.
The subject of test [8] is A2780-CP tumors. In words: In vivo, intraperitoneal A2780-cisplatin resistant luciferase tumors. The conditions noted are these: cisplatin alone, 5 mg/kg biweekly. The arrangement: species or system athymic nude mice.

The structures appear in SMILES notation. pIC50: −log10 of the molar value.

Take `N.N.[Cl][Pt][Cl]` [cisplatin]: the pIC50 in test [1] was 4.98; in test [2], 4.87; in test [3] it was 5.13; in test [4], 5.69; in test [5] it was 5.76; in test [6], 5.92. For the same molecule, the “growth of A2780 ovarian cancer (bioluminescence)” value in test [7] is recorded as “reduced the growth”. The “growth and metastasis of A2780-CP tumors” value in test [8] was “did not inhibit the growth and metastasis”.

The pIC50 is the negative decadic logarithm of the IC50, by convention in mol/L. Low values mean a high IC50, high ones a low IC50.

These data come from patent US20250197513A1, “OSMR-SPECIFIC MONOCLONAL ANTIBODIES AND METHODS OF THEIR USE” (THE BOARD OF REGENTS OF THE UNIVERSITY OF TEXAS SYSTEM, priority 2021, published 2025).
